Experimental data: patent US4621090A, “Antifungal compositions” (Toyo Soda Manufacturing Co., Ltd., priority 1983, dated 1986)
In brackets after ≈: the same amount, converted by molar mass. Read-outs that look alike come from different tables or passages of the source.

What was measured:
Format in all cases: cell-based
[1] = tested on: Trichophyton mentagraphytes MTU-19024; test: Minimum inhibitory concentration, anti-Trichophyton mentagraphytes activity test, strain MTU-19024; conditions: 27° C., a week; for MIC: Trichophyton, MTU19024, Sabouraud's dextrose agar
Description: (§1) The activity was tested by the 10 time-step dilution test, using the Sabouraud's dextrose agar culture medium (2% dextrose, 1% pepton and 1.5% agar; pH 6.5±). A platinum loopful (about 10 μl) spore suspension (prepared from a reserved strain of Trichlophyton mentagraphytes and containing 1×10^6 cells/ml) was applied in the form of drawn lines on a plate of a culture medium containing the active ingredients. The culture medium plate was kept at 27° C. for a week and then visually observed to see if any colonies had formed. The minimum inhibitory concentration was defined as the minimum concentration with which formation of distinct colonies on the culture medium plate was not observed.

[2] = tested on: Trichophyton mentagraphytes MTU-19031; test: Minimum inhibitory concentration, anti-Trichophyton mentagraphytes activity test, strain MTU-19031; conditions: 27° C., a week; for MIC: Trichophyton, MTU19031, Sabouraud's dextrose agar
Description: as §1

[3] = tested on: Trichophyton violaceum MTU-19021; test: Growth inhibition test; conditions: read-out: Minimum inhibitory concentration
[4] = tested on: Microsporum canis MTU-20010; test: Growth inhibition test; conditions: read-out: Minimum inhibitory concentration
[5] = tested on: Microsporum gypseum MTU-20005; test: Growth inhibition test; conditions: Nannizzia gypsea, read-out: Minimum inhibitory concentration
[6] = tested on: Epidermophyton floccosum MTU-21007; test: Growth inhibition test; conditions: MTU21007, 336 h, after 14 days cultivation at 27° C., read-out: Minimum inhibitory concentration
[7] = MTU19021, 168 h, after 7 days cultivation at 27° C.
[8] = MTU19021, 336 h, after 14 days cultivation at 27° C.
[9] = MTU20010, 168 h, after 7 days cultivation at 27° C.
[10] = MTU20010, 336 h, after 14 days cultivation at 27° C.
[11] = MTU20005, 168 h, after 7 days cultivation at 27° C.
[12] = MTU20005, 336 h, after 14 days cultivation at 27° C.

In the case of `CCc1ccc(OC(=S)N(C)c2cccc(OC)n2)cc1` [compound 33, O--4-Ethylphenyl N--(6-methoxy-2-pyridyl)-N--methylthiocarbamate], the MIC [1] is reported as 0.5 µg/mL (≈ 1.65 µM) and the MIC [2] is reported as 0.05 µg/mL (≈ 0.165 µM).

In the case of `COc1cccc(N(C)C(=S)Oc2ccc(C(F)(F)F)cc2)n1` [compound 43, O-- 4-Trifluoromethylphenyl N--(6-methoxy-2-pyridyl)-N--methylthiocarbamate], the MIC [1] is reported as 0.5 µg/mL (≈ 1.46 µM) and the MIC [2] is reported as 0.05 µg/mL (≈ 0.146 µM).

With `COc1cccc(N(C)C(=S)Oc2ccc(C)c(C)c2)n1` [compound 22, O--3,4-Dimethylphenyl N--(6-methoxy-2-pyridyl)-N--methylthiocarbamate] the MIC [1] was 0.5 µg/mL (≈ 1.65 µM) and the MIC [2] was 0.5 µg/mL (≈ 1.65 µM).

In the case of `COc1cccc(N(C)C(=S)Oc2ccc(Cl)c(C)c2)n1` [compound 38, O--4-Chloro-3-methylphenyl N--(6-methoxy-2-pyridyl)-N--methylthiocarbamate], the MIC [1] is reported as 0.5 µg/mL (≈ 1.55 µM) and the MIC [2] is reported as 0.05 µg/mL (≈ 0.155 µM).

`COc1cccc(N(C)C(=S)Oc2cccc(C(C)C)c2)n1` [compound 48, O--3-Isopropylphenyl N--(6-methoxy-2-pyridyl)-N--methylthiocarbamate] was tested, and the MIC [1] was 0.5 µg/mL (≈ 1.58 µM), the MIC [2] was 0.5 µg/mL (≈ 1.58 µM) and the MIC [3, 7] was 0.5 µg/mL (≈ 1.58 µM). The MIC [3, 8] was 0.5 µg/mL (≈ 1.58 µM), the MIC [4, 9] was 0.5 µg/mL (≈ 1.58 µM) and the MIC [4, 10] was 0.5 µg/mL (≈ 1.58 µM). For the same compound, the MIC [5, 11] was 0.5 µg/mL (≈ 1.58 µM), the MIC [5, 12] was 0.5 µg/mL (≈ 1.58 µM) and the MIC [6] was 0.5 µg/mL (≈ 1.58 µM).

`CCCc1ccc(OC(=S)N(C)c2cccc(OC)n2)cc1` [compound 65, O--4-Propylphenyl N--(6-methoxy-2-pyridyl)-N--methylthiocarbamate] showed an MIC [1] of 0.5 µg/mL (≈ 1.58 µM) and an MIC [2] of 0.5 µg/mL (≈ 1.58 µM).

For `Cc1ccc(N(C)C(=S)Oc2ccc3c(c2)CCC3)nc1C` [compound 26, O--5-Indanyl N--methyl-N--(5,6-dimethyl-2-pyridyl)thiocarbamate], the MIC [1] was 0.5 µg/mL (≈ 1.6 µM) and the MIC [2] was 0.5 µg/mL (≈ 1.6 µM).

Compound `CCC(C)(C)c1ccc(OC(=S)N(C)c2cccc(OC)n2)cc1` [compound 19, O--4-t-Pentylphenyl N--(6-methoxy-2-pyridyl)-N--methylthiocarbamate] has an MIC [1] of 0.5 µg/mL (≈ 1.45 µM) and an MIC [2] of 0.5 µg/mL (≈ 1.45 µM).

With `COc1cccc(N(C)C(=S)Oc2ccc(C)cc2)n1` [compound 53, O--4-Methylphenyl N--(6-methoxy-2-pyridyl)-N--methylthiocarbamate] the MIC [1] was 0.5 µg/mL (≈ 1.73 µM) and the MIC [2] was 0.5 µg/mL (≈ 1.73 µM).

With `COc1cccc(N(C)C(=S)Oc2ccc(SC)c(C)c2)n1` [compound 67, O--3-Methyl-4-methylthiophenyl N--(6-methoxy-2-pyridyl)-N--methylthiocarbamate] the MIC [1] was 0.5 µg/mL (≈ 1.49 µM) and the MIC [2] was 0.5 µg/mL (≈ 1.49 µM).

In the case of “O--Methyl-4-nitrophenyl N--(6-methoxy-2-pyridyl)-N--methylthiocarbamate [compound 66]”, the Minimum inhibitory concentration ([1]; Sabouraud's dextrose agar) is reported as 0.5 µg/mL and the Minimum inhibitory concentration ([2]; Sabouraud's dextrose agar) is reported as 0.5 µg/mL.

`CCc1ccc(OC(=S)N(C)c2cccc(OC)n2)cc1C` [compound 39, O--4-Ethyl-3-methylphenyl N--(6-methoxy-2-pyridyl)-N--methylthiocarbamate] gave an MIC [1] of 0.5 µg/mL (≈ 1.58 µM) and an MIC [2] of 0.5 µg/mL (≈ 1.58 µM).

For `CN(C)c1cccc(N(C)C(=S)Oc2ccc3ccccc3c2)n1` [compound 35, O--2-Naphthyl N--methyl-N--(6-dimethylamino-2-pyridyl)-thiocarbamate], the MIC [1] was 0.5 µg/mL (≈ 1.48 µM) and the MIC [2] was 0.5 µg/mL (≈ 1.48 µM).

In the case of `Cc1cc(C)nc(N(C)C(=S)Oc2ccc3c(c2)CCC3)c1` [compound 15, O--5-Indanyl N--methyl-N--(4,6-dimethyl-2-pyridyl)thiocarbamate], the MIC [1] is reported as 0.5 µg/mL (≈ 1.6 µM) and the MIC [2] is reported as 0.5 µg/mL (≈ 1.6 µM).

`C=C(C)c1ccc(OC(=S)N(C)c2cccc(OC)n2)cc1` [compound 56, O--4-Isopropenylphenyl N--(6-methoxy-2-pyridyl)-N--methylthiocarbamate] showed an MIC [1] of 0.5 µg/mL (≈ 1.59 µM) and an MIC [2] of 0.5 µg/mL (≈ 1.59 µM).

`Cc1cccc(N(C)C(=S)Oc2ccc3ccccc3c2)n1` [Compound No. 2, O-2-Naphthyl N-methyl-N-(6-methyl-2-pyridyl)thiocarbamate] was tested, and the MIC [1] was 0.5 µg/mL (≈ 1.62 µM) and the MIC [2] was 0.5 µg/mL (≈ 1.62 µM).

`CN(C)c1cccc(N(C)C(=S)Oc2ccc(C(C)(C)C)cc2)n1` [compound 36, O--4-t-Butylphenyl N--methyl-N--(6-dimethylamino-:2-pyridyl)-thiocarbamate] gave an MIC [1] of 0.5 µg/mL (≈ 1.46 µM) and an MIC [2] of 0.5 µg/mL (≈ 1.46 µM).

Compound `COc1cccc(N(C)C(=S)Oc2ccc(Cl)c(Cl)c2)n1` [compound 50, O--3,4-Dichlorophenyl N--(6-methoxy-2-pyridyl)-N--methylthiocarbamate] has an MIC [1] of 0.5 µg/mL (≈ 1.46 µM) and an MIC [2] of 0.5 µg/mL (≈ 1.46 µM).

Work on `Cc1ccc(N(C)C(=S)Oc2ccc3ccccc3c2)nc1C` [compound 25, O--2-Naphthyl N--methyl-N--(5,6-dimethyl-2-pyridyl)thiocarbamate] yielded an MIC [1] of 0.5 µg/mL (≈ 1.55 µM) and an MIC [2] of 0.5 µg/mL (≈ 1.55 µM).

`COc1cccc(N(C)C(=O)Oc2ccc3c(c2)C2CCC3C2)n1` (stereo not shown) [compound 13, 1,4-Methano-1,2,3,4-tetrahydro-6-naphthyl N--(6-methoxy-2-pyridyl)-N--methylcarbamate] was tested, and the MIC [1] was 0.5 µg/mL (≈ 1.54 µM) and the MIC [2] was 0.5 µg/mL (≈ 1.54 µM).

`COc1cccc(N(C)C(=S)Oc2ccc(C(C)C)c(C)c2)n1` [compound 41, O--4-Isopropyl-3-methylphenyl N--(6-methoxy-2-pyridyl)-N--methylthiocarbamate] gave an MIC [1] of 0.5 µg/mL (≈ 1.51 µM) and an MIC [2] of 0.5 µg/mL (≈ 1.51 µM).

`COc1cccc(N(C)C(=S)Oc2ccc(SC)cc2)n1` [compound 62, O--4-Methylthiophenyl N--(6-methoxy-2-pyridyl)-N--methylthiocarbamate] was tested, and the MIC [1] was 0.5 µg/mL (≈ 1.56 µM) and the MIC [2] was 0.05 µg/mL (≈ 0.156 µM).

In the case of `Cc1ccc(N(C)C(=S)Oc2ccc3c(c2)CCCC3)nc1C` [compound 27, O--5,6,7,8-Tetrahydro-2-naphthyl N--methyl-N--(5,6-dimethyl-2-pyridyl)-thiocarbamate], the MIC [1] is reported as 0.5 µg/mL (≈ 1.53 µM) and the MIC [2] is reported as 0.5 µg/mL (≈ 1.53 µM).

In the case of `CNc1cccc(N(C)C(=S)Oc2ccc(C(C)(C)C)cc2)n1` [compound 58, O--4-t-Butylphenyl N--methyl-N--(6-methylamino-2-pyridyl)thiocarbamate], the MIC [1] is reported as 0.5 µg/mL (≈ 1.52 µM) and the MIC [2] is reported as 0.5 µg/mL (≈ 1.52 µM).

Compound `COc1cccc(N(C)C(=S)Oc2ccc3c(c2)C2CCC3CC2)n1` [compound 21, O--1,4-Ethano-1,2,3,4-tetrahydro-6-naphthyl N--(6-methoxy-2-pyridyl)-N--methylthiocarbamate] has an MIC [1] of 0.5 µg/mL (≈ 1.41 µM) and an MIC [2] of 0.5 µg/mL (≈ 1.41 µM).

For `Cc1cccc(N(C)C(=S)Oc2ccc3c(c2)CCCC3)n1` [compound 8, O--5,6,7,8-Tetrahydro-2-naphthyl N--methyl-N--(6-methyl-2-pyridyl)thiocarbamate], the MIC [1] was 0.5 µg/mL (≈ 1.6 µM) and the MIC [2] was 0.5 µg/mL (≈ 1.6 µM).

`COc1cccc(N(C)C(=S)Oc2ccc3c(c2)C2CCC3C2)n1` (stereo not shown) [compound 12, O--1,4-Methano-1,2,3,4-tetrahydro-6-naphthyl N--(6-methoxy-2-pyridyl)-N--methylthiocarbamate] gave an MIC [1] of 0.5 µg/mL (≈ 1.47 µM) and an MIC [2] of 0.5 µg/mL (≈ 1.47 µM).

`CN(C)c1cccc(N(C)C(=S)Oc2ccc(C(F)(F)F)cc2)n1` [compound 68, O--4-Trifluoromethylphenyl N--(6-dimethylamino-2-pyridyl)-N--methylthiocarbamate] gave an MIC [1] of 0.5 µg/mL (≈ 1.41 µM) and an MIC [2] of 0.5 µg/mL (≈ 1.41 µM).

Compound `Cc1cc(C)nc(N(C)C(=S)Oc2ccc3ccccc3c2)c1` [compound 14, O--2-Naphthyl N--methyl-N--(4,6,-dimethyl-2-pyridyl)thiocarbamate] has an MIC [1] of 0.5 µg/mL (≈ 1.55 µM) and an MIC [2] of 0.5 µg/mL (≈ 1.55 µM).

`COc1cccc(N(C)C(=S)Oc2ccc(C(C)C)cc2)n1` [compound 30, O--4-Isopropylphenyl N--(6-methoxy-2-pyridyl)-N--methylthiocarbamate] gave an MIC [1] of 0.5 µg/mL (≈ 1.58 µM) and an MIC [2] of 0.5 µg/mL (≈ 1.58 µM).

In the case of `COc1cccc(N(C)C(=S)Oc2ccc(C(C)(C)C)cc2)n1` [compound 16, O--4-t-Butylphenyl N--(6-methoxy-2-pyridyl)-N--methylthiocarbamate], the MIC [1] is reported as 0.5 µg/mL (≈ 1.51 µM) and the MIC [2] is reported as 0.5 µg/mL (≈ 1.51 µM).

In the case of `COc1cccc(N(C)C(=S)Oc2cccc(C(C)(C)C)c2)n1` [compound 28, O--3-t-Butylphenyl N--(6-methoxy-2-pyridyl)-N--methylthiocarbamate], the MIC [1] is reported as 0.5 µg/mL (≈ 1.51 µM), the MIC [2] is reported as 0.5 µg/mL (≈ 1.51 µM) and the MIC [3, 7] is reported as 0.5 µg/mL (≈ 1.51 µM). It also gave an MIC [3, 8] of 0.5 µg/mL (≈ 1.51 µM), an MIC [4, 9] of 0.5 µg/mL (≈ 1.51 µM) and an MIC [4, 10] of 0.5 µg/mL (≈ 1.51 µM). The MIC [5, 11] was 0.5 µg/mL (≈ 1.51 µM), the MIC [5, 12] was 0.5 µg/mL (≈ 1.51 µM) and the MIC [6] was 0.5 µg/mL (≈ 1.51 µM).

`COc1cccc(N(C)C(=S)Oc2ccc(Br)cc2)n1` [compound 34, O--4-Bromophenyl N--(6-methoxy-2-pyridyl)-N--methylthiocarbamate] showed an MIC [1] of 0.5 µg/mL (≈ 1.42 µM) and an MIC [2] of 0.05 µg/mL (≈ 0.142 µM).

For `COc1cccc(N(C)C(=S)Oc2ccc(Br)c(C)c2)n1` [compound 46, O--4-Bromo-3-methylphenyl N--(6-methoxy-2-pyridyl)-N--methylthiocarbamate], the MIC [1] was 0.5 µg/mL (≈ 1.36 µM) and the MIC [2] was 0.5 µg/mL (≈ 1.36 µM).
